Results published in patent US20050009812A1, “Remedies for stress diseases comprising mitochondrial benzodiazepine receptor antagonists” (priority 2001, published 2005).

How the values were obtained:
MBR [1] = target: T1, MBR (Rattus norvegicus, UniProt P16257); test: Receptor binding: [3H]PK11195 binding to rat brain membrane preparation; parameters: The brains without cerebellum were homogenized in ice-cold 50 mmol/L Tris-HCl buffer (pH7.4); from tissue; host or cells: male Wistar rat brain without cerebellum, crude membrane pellet; settings: competition with [3H]PK11195 1 nmol/L, Cheng & Prusoff
Procedure: Experiment 1: Receptor Binding
The affinity of the compound to MBR was determined using rat brain membrane preparation. Male Wistar rats were decapitated. After extirpation of the brain, cerebellum was removed. The brains without cerebellum were homogenized in ice-cold 50 mmol/L Tris-HCl buffer (pH7.4). The homogenate was centrifuged at 12,000 g for 20 min (4° C.), then supernatant was discarded. The residual pellet was washed in the same buffer. The pellet resuspended in 50 mmol/L Tris-HCl buffer (pH7.4) and adjusted to about 1 mg/mL was used as the rat brain membrane preparation for binding assay.
To determine the amount of non-specific binding, 20 μmol/L of PK11195 was added in place of DMSO and incubate for 1 h. The reaction was terminated by rapid filtration on GF/B filter soaked with 0.3% polyethyleneimine using cell harvester, then the filter was washed twice with 50 mmol/L Tris-HCl buffer (pH7.4). After dried in the oven, the radioactivity on the filer was measured by liquid scintillation counter. The data were analyzed using analysis soft KELL (Ver.6, BIOSOFT).
To determine the amount of non-specific binding, 20 μmol/L of PK11195 was added in place of DMSO. And to determine the affinity of the invention, 10 pmol/L to 1 μmol/L of the compound dissolved in DMSO was added in place of DMSO. The reaction was terminated as above described, then radioactivity on the filer was measured by liquid scintillation counter. […] The inhibitory constant (Ki value) was derived according to the equation of Cheng & Prusoff (Biochem. Pharmacol., 22, 3099-3108, 1973).

MBR [2] = target: T1, MBR; test: MBR antagonist activity: FGIN1-27-stimulated pregnenolone production in rat adrenocortical mitochondria; type: biochemical; settings: FGIN1-27 1 nmol/L; MBR antagonist 0.1 pmol/L to 1 μmol/L; FIGS. 1 and 2
Source text: Horizontal axis represents the concentrations of the compound.

[3] = tested on: rat adrenocortical mitochondria; test: Determination of pregnenolone in rat adrenocortical mitochondria; type: biochemical; settings: for pregnenolone content relative to DMSO treated group: final concentration of the compound 1 μmol/L; for Amount of pregnenolone production (%): 10 μmol/L, DMSO assumed 100, n=5; for MBR agonist or antagonist as judged by effect on pregnenolone production: compared with DMSO treated group
[4] = tested on: stress-loaded male Wistar rats; test: Anti-stress effect: number of fecal pellets in psychological (water aversive) stress model; type: in vivo, rat; settings: for number of fecal pellets: p.o., male Wistar rats, psychological (water aversive) stress, counted 1 h after start of stress loading, mean ± spread; for number of fecal pellets / effect on stress-induced increase in the number of fecal pellets: n=10/group; for effect on number of fecal pellets vs vehicle (significance, all doses): all tested p.o. doses vs vehicle, stress-loaded male Wistar rats; for effect on stress-induced increase in the number of fecal pellets: oral administration 30 min before stress loading, counted after 1 h
Procedure: Psychological stress was loaded to male Wistar rats (Brain Res., 641, 21-28 (1994)). Platform was located in the center of the container and water was collected to 10 cm in height. Thirty min after oral administration of vehicle or the compound, stress loading was started. One hour after, number of fecal pellets were counted (n=10/group). The rats without administration and stress-loading rarely defecated in 1 h.

| Compound | Ki (MBR [1]) | number of fecal pellets ([4]; 3 mg/kg) | number of fecal pellets ([4]; 30 mg/kg) | Amount of pregnenolone production (%) [3] | MBR agonist or antagonist as judged by effect on pregnenolone production [3] | effect on stress-induced increase in the number of fecal pellets [4] | other results |
| --- | --- | --- | --- | --- | --- | --- | --- |
| O=C(NCc1ccc(F)cc1C(F)(F)F)c1cccc(Cl)c1Cl [1(16), N-(4-fluoro-2-trifluoromethylbenzyl)-2,3-dichlorobenzamide] | 0.19 nM | – | – | – | – | – | – |
| O=C(NCc1cc(F)ccc1OCc1ccccc1)c1cccc(Cl)c1Cl [1(110), N-(2-benzyloxy-5-fluorobenzyl)-2,3-dichlorobenzamide] | 0.22 nM | – | – | – | – | – | – |
| Fc1cccc(Cl)c1Cn1nnnc1-c1ccccc1C(F)(F)F [2(14), 1-(2-chloro-6-fluorobenzyl)-5-(2-trifluoromethylphenyl)-1H-1,2,3,4-tetrazole] | 3.3 nM | 6.6 ± 0.76 | 5.1 ± 0.78 | – | – | – | antagonistic effect on FGIN1-27-stimulated pregnenolone production (MBR [2]): antagonize the steroid production stimulated by MBR agonist; pregnenolone content relative to DMSO treated group [3]: 0.98 times; number of fecal pellets ([4]; 0.3 mg/kg): 6.1 ± 0.82 |
| Clc1ccc(Cl)c(Cc2nnnn2-c2cccc(Cl)c2Cl)c1 [2(71), 5-(2,5-dichlorobenzyl)-1-(2,3-dichlorophenyl)-1H-1,2,3,4-tetrazole] | 0.08 nM | – | – | – | – | – | – |
| Clc1cccc(Cc2nnnn2-c2cccc(Cl)c2Cl)c1Cl [2(74), 5-(2,3-dichlorobenzyl)-1-(2,3-dichlorophenyl)-1H-1,2,3,4-tetrazole] | 0.16 nM | – | – | – | – | – | – |
| Clc1cccc(-c2nnnn2Cc2cc(Cl)ccc2OCc2ccccc2)c1 [2(105), 1-(2-benzyloxy-5-chlorobenzyl)-5-(3-chlorophenyl)-1H-1,2,3,4-tetrazole] | 0.73 nM | – | – | – | – | – | – |
| CCN(Cc1ccccc1)C(=O)Cn1c(=O)n(C)c2cnc(-c3ccccc3)nc21 [AC-5216, N-benzyl-N-ethyl-2-(7-methyl-8-oxo-2-phenyl-7,8-dihydro-9H-purin-9-yl)acetamide] | – | 7.5 ± 0.63 | 9.3 ± 0.94 | 122.65 ± 7.56% | MBR agonists which increase pregnenolone production | did not show an effect | MBR agonist or antagonist as judged by effect on pregnenolone production ([3]; listed as N-benzyl-N-ethyl-2-(7-methyl-8-oxo-2-phenyl-7,8-dihydro-9H-purin-9-yl)acetamide): MBR antagonist; number of fecal pellets ([4]; 0.3 mg/kg): 9.6 ± 0.74; effect on number of fecal pellets vs vehicle (significance, all doses) [4]: No significant effect in any dose.; effect on stress-induced increase in the number of fecal pellets ([4]; listed as AC-5261): did not produce significant effects |
| CCCN(CCC)C(=O)c1c(-c2ccc(Cl)cc2)nc2cc(Cl)cc(Cl)n12 [CB34, 5,7-dichloro-2-(4-chlorophenyl)-3-dipropylaminocarbonylimidazo[1,2-a]pyridine] | – | 10.2 ± 0.96 | 8.6 ± 1.00 | 131.36 ± 5.38% | MBR agonists which increase pregnenolone production | did not produce significant effects | number of fecal pellets ([4]; 10 mg/kg): 7.6 ± 0.93; effect on number of fecal pellets vs vehicle (significance, all doses) [4]: No significant effect in any dose. |
| CCCCCCN(CCCCCC)C(=O)Cc1c(-c2ccc(F)cc2)[nH]c2ccccc12 [FGIN1-27, 2-[2-(4-fluorophenyl)-1H-indole-3-yl]-N,N-dihexylacetamide] | – | – | – | – | MBR agonists which increase pregnenolone production | – | pregnenolone content relative to DMSO treated group [3]: 1.37 times |
| CCC(C)N(C)C(=O)c1cc2ccccc2c(-c2ccccc2Cl)n1 (stereo not shown) [PK11195, 1-(2-chlorophenyl)-N-methyl-N-(1-methylpropyl)-3-isoquinolinecarboxamide] | – | 6.6 ± 0.97 | 5.5 ± 0.81 | 101.82 ± 1.64% | MBR antagonists which hardly effect on it | produced significant effects | antagonistic effect on FGIN1-27-stimulated pregnenolone production (MBR [2]): antagonize the steroid production stimulated by MBR agonist; number of fecal pellets ([4]; 0.3 mg/kg): 6.4 ± 0.76 |
| CN1C(=O)CN=C(c2ccc(Cl)cc2)c2cc(Cl)ccc21 [Ro5-4864, 7-chloro-5-(4-chlorophenyl)-1-methyl-2-oxo-2,3-dihydro-1H-benzodiazepine] | – | 8.9 ± 1.16 | 8.6 ± 0.91 | 123.59 ± 5.41% | MBR agonists which increase pregnenolone production | did not produce significant effects | number of fecal pellets ([4]; 10 mg/kg): 9.2 ± 0.98; effect on number of fecal pellets vs vehicle (significance, all doses) [4]: No significant effect in any dose. |
